According to ChEMBL document CHEMBL1201862, “PubChem BioAssay data set” (2004):
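Exposure lasted 48 hours, with cells grown in 96-well plates and compounds tested at five concentrations. Here, GI50 denotes the concentration required for 50% inhibition of growth.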 Calls of active or inactive are those of the source. Cut-off read from the data, not from the text of the source: active = GI50 up to about 1.1 µM and inactive = higher.

What was measured:
Assay in all cases: inhibition of tumour cell growth, NCI panel, 48 h
[1] = system: ACHN
[2] = system: OVCAR-3
[3] = system: SK-MEL-28
[4] = system: UACC-62
[5] = system: SK-OV-3
[6] = system: CCRF-CEM
[7] = system: EKVX
[8] = system: CAKI-1
[9] = system: KM12
[10] = system: HCT-116
[11] = system: Hs-578T
[12] = system: SK-MEL-5
[13] = system: HCC 2998
[14] = system: OVCAR-5
[15] = system: A498
[16] = system: NCI-H522
[17] = system: MDA-MB-435
[18] = system: RPMI-8226
[19] = system: HOP-62
[20] = system: NCI-H23
[21] = system: SK-MEL-2
[22] = system: MCF7
[23] = system: OVCAR-4
[24] = system: SF-295
[25] = system: DU-145
[26] = system: HOP-92
[27] = system: UACC-257
[28] = system: HT-29
[29] = system: TK-10
[30] = system: RXF 393
[31] = system: HCT-15
[32] = system: M14
[33] = system: IGROV-1
[34] = system: OVCAR-8
[35] = system: COLO 205
[36] = system: K562
[37] = system: PC-3
[38] = system: MOLT-4
[39] = system: MDA-MB-231
[40] = system: Malme-3M
[41] = system: NCI-H460
[42] = system: BT-549
[43] = system: MDA-N
[44] = system: SNB-75
[45] = system: NCI/ADR-RES
[46] = system: A549
[47] = system: U-251
[48] = system: SF-268
[49] = system: SNB-19
[50] = system: 786-0
[51] = system: UO-31
[52] = system: SW-620
[53] = system: NCI-H226
[54] = system: SN12C
[55] = system: SF-539
[56] = system: LOX IMVI
[57] = system: HL-60
[58] = system: SR

With `CCOP(=O)(OCC)c1cc(-c2ccccc2)ccc1N` the GI50 [1] was > 100 µM (inactive), the GI50 [2] was > 100 µM (inactive) and the GI50 [3] was > 100 µM (inactive). The GI50 [4] was > 100 µM (inactive), the GI50 [5] was > 100 µM (inactive) and the GI50 [6] was > 100 µM (inactive). The GI50 [7] was 41.5 µM (inactive), the GI50 [8] was > 100 µM (inactive) and the GI50 [9] was > 100 µM (inactive). For the same molecule, the GI50 [10] was 66.5 µM (inactive), the GI50 [11] was 52 µM (inactive) and the GI50 [12] was > 100 µM (inactive). The GI50 [13] was > 100 µM (inactive), the GI50 [14] was > 100 µM (inactive) and the GI50 [15] was > 100 µM (inactive). For the same molecule, the GI50 [16] was 61.8 µM (inactive), the GI50 [17] was > 100 µM (inactive) and the GI50 [18] was > 100 µM (inactive). For the same molecule, the GI50 [19] was 37.2 µM (inactive), the GI50 [20] was > 100 µM (inactive) and the GI50 [21] was > 100 µM (inactive). The GI50 [22] was > 100 µM (inactive), the GI50 [23] was 89.1 µM (inactive) and the GI50 [24] was 92.3 µM (inactive). For the same molecule, the GI50 [25] was > 100 µM (inactive), the GI50 [26] was 34.6 µM (inactive) and the GI50 [27] was > 100 µM (inactive). For the same molecule, the GI50 [28] was > 100 µM (inactive), the GI50 [29] was > 100 µM (inactive) and the GI50 [30] was 33 µM (inactive). The GI50 [31] was greater than 100 µM, the GI50 [32] was > 100 µM (inactive) and the GI50 [33] was > 100 µM (inactive). The GI50 [34] was > 100 µM (inactive), the GI50 [35] was > 100 µM (inactive) and the GI50 [36] was > 100 µM (inactive). The GI50 [37] was > 100 µM (inactive), the GI50 [38] was > 100 µM (inactive) and the GI50 [39] was > 100 µM (inactive). For the same molecule, the GI50 [40] was > 100 µM (inactive), the GI50 [41] was > 100 µM (inactive) and the GI50 [42] was > 100 µM (inactive). For the same molecule, the GI50 [43] was > 100 µM (inactive), the GI50 [44] was 81.7 µM (inactive) and the GI50 [45] was > 100 µM (inactive). For the same molecule, the GI50 [46] was > 100 µM (inactive), the GI50 [47] was > 100 µM (inactive) and the GI50 [48] was > 100 µM (inactive). For the same molecule, the GI50 [49] was > 100 µM (inactive), the GI50 [50] was > 100 µM (inactive) and the GI50 [51] was > 100 µM (inactive). The GI50 [52] was > 100 µM (inactive).
`O=[N+]([O-])c1cc(Cl)ccc1S(=O)(=O)N1CCCc2cc(Cl)ccc21` was tested, and the GI50 [53] was 82.4 µM (inactive), the GI50 [1] was > 100 µM (inactive) and the GI50 [2] was > 100 µM (inactive). The GI50 [3] was > 100 µM (inactive), the GI50 [4] was 19.7 µM (inactive) and the GI50 [5] was 59.6 µM (inactive). For the same molecule, the GI50 [6] was 6.17 µM (inactive), the GI50 [7] was > 100 µM (inactive) and the GI50 [8] was 45.2 µM (inactive). The GI50 [9] was 51.9 µM (inactive), the GI50 [10] was 28.6 µM (inactive) and the GI50 [54] was > 100 µM (inactive). The GI50 [11] was > 100 µM (inactive), the GI50 [12] was 30.8 µM (inactive) and the GI50 [13] was > 100 µM (inactive). The GI50 [14] was > 100 µM (inactive), the GI50 [15] was 45.6 µM (inactive) and the GI50 [17] was 17.8 µM (inactive). For the same molecule, the GI50 [55] was 93.1 µM (inactive), the GI50 [18] was 20.6 µM (inactive) and the GI50 [19] was > 100 µM (inactive). For the same molecule, the GI50 [21] was > 100 µM (inactive), the GI50 [22] was 45.8 µM (inactive) and the GI50 [23] was 88.9 µM (inactive). The GI50 [56] was 34.8 µM (inactive), the GI50 [24] was 45.7 µM (inactive) and the GI50 [25] was 61.5 µM (inactive). For the same molecule, the GI50 [26] was 30.8 µM (inactive), the GI50 [27] was 7.08 µM (inactive) and the GI50 [28] was 21 µM (inactive). The GI50 [29] was > 100 µM (inactive), the GI50 [30] was 51.2 µM (inactive) and the GI50 [31] was 33.7 µM. The GI50 [32] was > 100 µM (inactive), the GI50 [33] was 30.8 µM (inactive) and the GI50 [34] was > 100 µM (inactive). For the same molecule, the GI50 [35] was 51.8 µM (inactive), the GI50 [36] was 9.48 µM (inactive) and the GI50 [37] was 55 µM (inactive). For the same molecule, the GI50 [38] was 6.11 µM (inactive), the GI50 [39] was > 100 µM (inactive) and the GI50 [40] was 51.5 µM (inactive). The GI50 [41] was 30.5 µM (inactive), the GI50 [42] was 31.9 µM (inactive) and the GI50 [43] was 22.5 µM (inactive). The GI50 [57] was > 10 µM (inactive), the GI50 [44] was 18.7 µM (inactive) and the GI50 [45] was 25.5 µM (inactive). For the same molecule, the GI50 [46] was 43.1 µM (inactive), the GI50 [48] was > 100 µM (inactive) and the GI50 [49] was > 100 µM (inactive). For the same molecule, the GI50 [50] was > 100 µM (inactive), the GI50 [51] was 46.2 µM (inactive) and the GI50 [52] was > 100 µM (inactive).
`CCC[C@@H]1C(=O)N=C(N)N1C(=O)OCc1ccccc1` was tested, and the GI50 [53] was > 100 µM (inactive), the GI50 [1] was > 100 µM (inactive) and the GI50 [2] was > 100 µM (inactive). For the same molecule, the GI50 [3] was > 100 µM (inactive), the GI50 [4] was > 100 µM (inactive) and the GI50 [7] was > 100 µM (inactive). For the same molecule, the GI50 [8] was > 100 µM (inactive), the GI50 [9] was > 100 µM (inactive) and the GI50 [10] was > 100 µM (inactive). For the same molecule, the GI50 [58] was > 100 µM (inactive), the GI50 [54] was > 100 µM (inactive) and the GI50 [11] was > 100 µM (inactive). The GI50 [12] was > 100 µM (inactive), the GI50 [13] was > 100 µM (inactive) and the GI50 [14] was > 100 µM (inactive). For the same molecule, the GI50 [15] was > 100 µM (inactive), the GI50 [16] was > 100 µM (inactive) and the GI50 [17] was > 100 µM (inactive). For the same molecule, the GI50 [18] was > 100 µM (inactive), the GI50 [19] was > 100 µM (inactive) and the GI50 [20] was > 100 µM (inactive). The GI50 [21] was > 100 µM (inactive), the GI50 [22] was > 100 µM (inactive) and the GI50 [23] was > 100 µM (inactive). For the same molecule, the GI50 [56] was > 100 µM (inactive), the GI50 [24] was > 100 µM (inactive) and the GI50 [25] was > 100 µM (inactive). The GI50 [27] was > 100 µM (inactive), the GI50 [28] was > 100 µM (inactive) and the GI50 [29] was > 100 µM (inactive). The GI50 [30] was > 100 µM (inactive), the GI50 [31] was greater than 100 µM and the GI50 [33] was > 100 µM (inactive). The GI50 [34] was > 100 µM (inactive), the GI50 [35] was > 100 µM (inactive) and the GI50 [36] was > 100 µM (inactive). For the same molecule, the GI50 [37] was > 100 µM (inactive), the GI50 [38] was > 100 µM (inactive) and the GI50 [39] was > 100 µM (inactive). The GI50 [40] was > 100 µM (inactive), the GI50 [41] was > 100 µM (inactive) and the GI50 [42] was > 100 µM (inactive). For the same molecule, the GI50 [43] was > 100 µM (inactive), the GI50 [57] was > 100 µM (inactive) and the GI50 [44] was > 100 µM (inactive). The GI50 [45] was > 100 µM (inactive), the GI50 [47] was > 100 µM (inactive) and the GI50 [48] was > 100 µM (inactive). The GI50 [49] was > 100 µM (inactive), the GI50 [50] was > 100 µM (inactive) and the GI50 [51] was > 100 µM (inactive). The GI50 [52] was > 100 µM (inactive).
